In patent US8273770B2, “5-pyridinone substituted indazoles” (Albany Molecular Research, Inc., priority 2007, dated 2012) one finds melting point and Ki data, which are given here for 49 molecules.

The target in data set [1] is T1, human MCH1 receptor (Homo sapiens, UniProt Q99705).
T1 construct: host or cells: CHO cells (assay I)
The data set can be described thus: MCH1 binding assay I or II (radioligand binding, membranes of CHO cells expressing the receptor). The following applies: estimated based on the measured percent inhibition. The source says: Binding Assay I for Human Melanin-Concentrating Hormone (MCH1) Receptor
Evaluation of the affinity of compounds for the human MCH1 receptor was accomplished in transfected Chinese Hamster Ovary (CHO) cells determined in a radioligand binding assay, as described in MacDonald et al., “Molecular characterization of the melanin-concentrating hormone/receptor complex: identification of critical residues involved in binding and activation”, Mol Pharmacol., 58:217 (2000). […] Nonspecific binding was determined in the presence of 0.1 μM MCH. […] The filters were dried, then counted for radioactivity in a scintillation counter (Topcount, Packard) using a scintillation cocktail (Microscint 0, Packard).
The results are expressed as a percent inhibition of the control radioligand specific binding. The IC50 value (concentration causing a half-maximal inhibition of control specific binding) and Hill coefficient (nH) were determined by non-linear regression analysis of the competition curve using Hill equation curve fitting. The inhibition constant (Ki) was calculated from the Cheng Prusoff equation: (Ki=IC50/(1+(L/KD)), where L=concentration of radioligand in the assay, and KD=affinity of the radioligand for the receptor). […]
The results are expressed as a percent inhibition of the control radioligand specific binding. […]

Counter-ions that a name gives are not always drawn.

T1 sequence (Q99705 whole entry): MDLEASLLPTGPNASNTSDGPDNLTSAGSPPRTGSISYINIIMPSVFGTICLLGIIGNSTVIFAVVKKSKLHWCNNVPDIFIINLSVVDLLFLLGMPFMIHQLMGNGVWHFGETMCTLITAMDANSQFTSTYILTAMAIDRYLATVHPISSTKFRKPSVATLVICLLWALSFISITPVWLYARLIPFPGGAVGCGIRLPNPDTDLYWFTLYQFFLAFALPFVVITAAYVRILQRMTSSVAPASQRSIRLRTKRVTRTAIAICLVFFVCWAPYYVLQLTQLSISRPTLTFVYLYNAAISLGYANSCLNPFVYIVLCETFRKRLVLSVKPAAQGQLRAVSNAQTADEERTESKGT

As to `COc1ccc2[nH]c(-c3ccn(-c4ccc5c(cnn5CCN5CCCC5)c4)c(=O)c3)cc2c1.Cl`, the melting point (in general, the temperature, or range, at which the solid turns liquid) fell in the range of 275 to 280 °C.

Regarding `COc1ccc(-c2ccn(-c3ccc4c(cnn4CCN4CCCC4)c3)c(=O)c2)c(Cl)c1.Cl`, the melting point lay in the range of 225 to 235 °C.

Take `O=c1cc(-c2ccc3ccccc3n2)ccn1-c1ccc2c(cnn2CCN2CCCC2)c1` (as salt: hydrochloride): the melting point was 220 to 225 °C.

As to `Cl.O=c1cc(-c2ccc(N3CCCCC3)cc2)ccn1-c1ccc2c(cnn2CCN2CCCC2)c1`, the melting point was in the range of 80 to 90 °C.

Consider `Cc1ccc2oc(-c3ccn(-c4ccc5c(cnn5CCN5CCCC5)c4)c(=O)c3)nc2c1.Cl`, for which the melting point was in the range of 270 to 280 °C.

`Cc1cc(OC(F)(F)F)ccc1-c1ccn(-c2ccc3c(cnn3CCN3CCCC3)c2)c(=O)c1.Cl` displayed a melting point of 185 to 195 °C.

`Cc1cc(OCc2ccccc2)ccc1-c1ccn(-c2ccc3c(cnn3CCN3CCCC3)c2)c(=O)c1.Cl`: the melting point fell in the range of 75 to 85 °C.

`Cl.O=c1cc(-c2ccc(F)cc2)ccn1-c1ccc2c(cnn2CCN2CCCC2)c1` displayed a melting point of 115 to 120 °C.

`Cl.O=c1cc(-c2ccc3c(c2)OCO3)ccn1-c1ccc2c(cnn2CCN2CCCC2)c1` returned a melting point of 75 to 85 °C.

`Cl.N#Cc1cc(F)ccc1-c1ccn(-c2ccc3c(cnn3CCN3CCCC3)c2)c(=O)c1`: the melting point fell in the range of 81 to 86 °C.

With `COc1cc(Cl)ccc1-c1ccn(-c2ccc3c(cnn3CCN3CCCC3)c2)c(=O)c1.Cl`, the melting point is 248 to 256 °C.

Molecule `Cc1ccccc1-c1ccn(-c2ccc3c(cnn3CCN3CCCC3)c2)c(=O)c1.Cl` yielded a melting point of 80 to 95 °C.

Consider `Cl.O=c1cc(-c2ccc(C(F)(F)F)cc2)ccn1-c1ccc2c(cnn2CCN2CCNCC2)c1`, for which the melting point is 222 to 224 °C (dec.).

For the molecule `Cl.O=c1cc(-c2ccc(Cl)cc2)ccn1-c1ccc2c(cnn2CCN2CCCC2)c1`, the melting point was 255 to 260 °C (dec.).

As for `CC(C)Oc1ccc(-c2ccn(-c3ccc4c(cnn4CCN4CCCC4)c3)c(=O)c2)cc1.Cl`, the melting point was in the range of 235 to 250 °C.

With `CCCCOc1ccc(-c2ccn(-c3ccc4c(cnn4CCN4CCCC4)c3)c(=O)c2)c(C)c1.Cl`, the melting point lay in the range of 80 to 95 °C.

In turn, `CCOc1ccc(-c2ccn(-c3ccc4c(cnn4CCN4CCCC4)c3)c(=O)c2)cc1.Cl` showed a melting point of 255 to 265 °C.

For `Cl.O=c1cc(-c2ccc(C(F)(F)F)cc2)ccn1-c1ccc2c(cnn2CCN2CCOCC2)c1`, the melting point is 248 to 250 °C (dec.).

With `COc1ccc(-c2ccn(-c3ccc4c(cnn4CCN4CCCC4)c3)c(=O)c2)c(OC)c1.Cl`, the melting point lay in the range of 95 to 115 °C.

Take `COc1ccc(-c2ccn(-c3ccc4c(cnn4CCN4CCCC4)c3)c(=O)c2)c(C)c1.Cl`: the melting point lay in the range of 205 to 215 °C.

Molecule `CN(C)C[C@@H](O)Cn1ncc2cc(-n3ccc(-c4ccc(C(F)(F)F)cc4)cc3=O)ccc21.Cl` had a melting point of 210 to 213 °C.

In turn, `Cl.O=c1cc(-c2ccc(C(F)(F)F)cc2)ccn1-c1ccc2c(cnn2CCN2CC3CC2CO3)c1` (stereo not shown) displayed a melting point of 148 to 150 °C.

For `Cl.NCCCn1ncc2cc(-n3ccc(-c4ccc(C(F)(F)F)cc4)cc3=O)ccc21`, the melting point is 222 to 224 °C (dec.).

In turn, `CN(C)CCCn1ncc2cc(-n3ccc(-c4ccc(C(F)(F)F)cc4)cc3=O)ccc21.Cl` came in with a melting point of 209 to 211 °C.

`Cl.O=c1cc(-c2ccc(-n3cccn3)cc2)ccn1-c1ccc2c(cnn2CCN2CCCC2)c1` yielded a melting point of 271 to 275 °C.

In turn, `Cl.O=c1cc(-c2ccc(C(F)(F)F)cc2C(F)(F)F)ccn1-c1ccc2c(cnn2CCN2CCCC2)c1` registered a melting point of 235 to 245 °C.

As for `Cl.O=c1cc(-c2ccc(C(F)(F)F)cn2)ccn1-c1ccc2c(cnn2CCCN2CCCC2)c1`, the melting point fell in the range of 110 to 120 °C.

For the molecule `Cl.O=c1cc(-c2ccc(OC(F)(F)F)cc2)ccn1-c1ccc2c(cnn2CCN2CCCC2)c1`, the melting point was in the range of 202 to 209 °C.

Molecule `COc1ccc(-c2ccn(-c3ccc4c(cnn4CCN4CCCC4)c3)c(=O)c2)c(F)c1.Cl` returned a melting point of 230 to 240 °C.

With `Cl.O=c1cc(-c2ccc(OC(F)(F)F)cc2F)ccn1-c1ccc2c(cnn2CCN2CCCC2)c1`, the melting point lay within 215 to 225 °C.

With `Cl.O=c1cc(-c2ccc(C(F)(F)F)cc2F)ccn1-c1ccc2c(cnn2CCN2CCCC2)c1`, the melting point fell in the range of 80 to 95 °C.

`Cl.O=c1cc(-c2cc3ccccc3s2)ccn1-c1ccc2c(cnn2CCN2CCCC2)c1` registered a melting point of 260 to 264 °C.

On to `Cl.O=c1cc(-c2cccc(Cl)c2)ccn1-c1ccc2c(cnn2CCN2CCCC2)c1`, for which the melting point fell in the range of 118 to 125 °C.

`CC1CC=C(c2ccn(-c3ccc4c(cnn4CCN4CCCC4)c3)c(=O)c2)CC1.Cl` (stereo not shown) had a melting point of 256 to 260 °C.

On to `Cl.Cn1ncc2cc(-c3ccn(-c4ccc5c(cnn5CCN5CCCC5)c4)c(=O)c3)ccc21`, for which the melting point was 55 to 65 °C.

In turn, `CN(C)CCn1ncc2cc(-n3ccc(-c4ccc(C(F)(F)F)cc4)cc3=O)ccc21.Cl` had a melting point of 222 to 224 °C.

`Cl.O=c1cc(-c2cc3ccccc3o2)ccn1-c1ccc2c(cnn2CCN2CCCC2)c1`: the melting point was 256 to 260 °C.

Consider `Cl.O=c1cc(-c2ccc(Cl)cc2F)ccn1-c1ccc2c(cnn2CCN2CCCC2)c1`, for which the melting point was 215 to 230 °C.

Regarding `COc1ccc(-c2ccn(-c3ccc4c(cnn4CCN4CCCC4)c3)c(=O)c2)cc1.Cl`, the melting point lay in the range of 105 to 110 °C.

Turning to `Cl.N#Cc1ccc(-c2ccn(-c3ccc4c(cnn4CCN4CCCC4)c3)c(=O)c2)cc1`, the melting point is 92 to 96 °C.

As for `Cc1ccc(-c2ccn(-c3ccc4c(cnn4CCN4CCCC4)c3)c(=O)c2)nc1.Cl`, the melting point fell in the range of 230 to 234 °C.

`Cc1ccc(-c2ccn(-c3ccc4c(cnn4CCN4CCCC4)c3)c(=O)c2)cc1.Cl` returned a melting point of 240 to 246 °C.

In turn, `Cl.O=c1cc(-c2ccc(C(F)(F)F)cc2)ccn1-c1ccc2c(cnn2C[C@H](O)CN2CCCC2)c1` had a melting point of 116 to 119 °C.

As to `COc1ccc2c(c1)cc(-c1ccn(-c3ccc4c(cnn4CCN4CCCC4)c3)c(=O)c1)n2C` [Example 65, 4-(5-Methoxy-1-methyl-1H-indol-2-yl)-1-(1-(2-(pyrrolidin-1-yl)ethyl)-1H-indazol-5-yl)pyridin-2(1H)-one dihydrochloride], the Ki (commonly a measure of affinity in units of concentration, obtained from inhibition or displacement) in data set [1] is about 3 µM.

Consider `CC1CCC(c2ccn(-c3ccc4c(cnn4CCN4CCCC4)c3)c(=O)c2)CC1.Cl` (stereo not shown), for which the melting point was 80 to 85 °C.

For `Cl.O=c1cc(-c2ccc3ccccc3c2)ccn1-c1ccc2c(cnn2CCN2CCCC2)c1`, the melting point lay within 128 to 134 °C.

`Cl.O=c1cc(-c2ccc(F)cc2F)ccn1-c1ccc2c(cnn2CCN2CCCC2)c1` registered a melting point of 235 to 255 °C.

`O=c1cc(-c2cccc3ccccc23)ccn1-c1ccc2c(cnn2CCN2CCCC2)c1` (as salt: hydrochloride) displayed a melting point of 128 to 133 °C.

In the case of `Cl.O=c1cc(-c2ccc(C(F)(F)F)cc2)ccn1-c1ccc2c(cnn2C[C@@H]2CCCN2)c1`, the melting point lay within 241 to 245 °C.
